We go through 52 compounds from paper PMC11995724, “Antibiotic target discovery by integrated phenotypic and activity-based profiling of electrophilic fragments” (Cell chemical biology, 2025).

The structures appear in SMILES notation. Structures can show the parent of a compound that is named as a salt.

This series can be described thus: in vitro. The following applies: human, hek293t cells.
As for `Cn1c(-c2ccccc2)c(C(=O)CCl)c2ccccc21` [10-N04, 2-chloro-1-(1-methyl-2-phenyl-1H-indol-3-yl)ethan-1-one], the viability at 48 h, 25 µM was 1.67%.

In the case of `COc1ccc(C(=O)CCl)c2c1C(=O)CO2` [10-N05, 7-(2-chloroacetyl)-4-methoxy-2,3-dihydro-1-benzofuran-3-one], the viability at 48 h, 25 µM was determined as 92.2%.

`CC(C)CC(=O)Nc1ccc(C(=O)CCl)cc1` [10-N06, N-[4-(2-chloroacetyl)phenyl]-3-methylbutanamide]: the viability at 48 h, 25 µM came to 11.7%.

On to `Cc1ccc(N2C(=O)C=CC2=O)c(C)c1` [10-N07, 1-(2,4-dimethylphenyl)-2,5-dihydro-1H-pyrrole-2,5-dione], for which the viability at 48 h, 25 µM came to 102%.

As for `Cc1nc(C)c(C(=O)CCl)o1` [10-N08, 2-chloro-1-(2,4-dimethyl-1,3-oxazol-5-yl)ethan-1-one], the viability at 48 h, 25 µM is 76.1%.

With `O=[N+]([O-])c1ccccc1S(=O)(=O)N1CCSSCC1` [10-N09, 5-(2-nitrobenzenesulfonyl)-1,2,5-dithiazepane], the viability at 48 h, 25 µM amounted to 117%.

For the compound `N#CC(C(=O)CCl)=C1NC2=C(CCc3ccccc32)S1` [10-N10, 4-chloro-2-{1H,2H,4H,5H-naphtho[1,2-d][1,3]thiazol-2-ylidene}-3-oxobutanenitrile], the viability at 48 h, 25 µM was 12.3%.

For the compound `CCOC(=O)C(C#N)=Cc1ccc(N2C(=O)C=CC2=O)cc1` [10-N11, ethyl 2-cyano-3-[4-(2,5-dioxo-2,5-dihydro-1H-pyrrol-1-yl)phenyl]prop-2-enoate], the viability at 48 h, 25 µM stood at 93.1%.

As for `COCCn1c(N)c(C(=O)CCl)c(=O)[nH]c1=O` [10-N12, 6-amino-5-(2-chloroacetyl)-1-(2-methoxyethyl)-1,2,3,4-tetrahydropyrimidine-2,4-dione], the viability at 48 h, 25 µM was found to be 103%.

As to `Cc1ccc(N2C(=O)C=CC2=O)c([N+](=O)[O-])c1` [10-N13, 1-(4-methyl-2-nitrophenyl)-2,5-dihydro-1H-pyrrole-2,5-dione], the viability at 48 h, 25 µM came out at 133%.

For `Cc1cc(C(=O)CCl)c(C)n1-c1ccc(S(N)(=O)=O)cc1` [10-N14, 4-[3-(2-chloroacetyl)-2,5-dimethyl-1H-pyrrol-1-yl]benzene-1-sulfonamide], the viability at 48 h, 25 µM turned out to be 85.8%.

Turning to `COc1ccc(OC)c(N2C(=O)C=CC2=O)c1` [10-N15, 1-(2,5-dimethoxyphenyl)-2,5-dihydro-1H-pyrrole-2,5-dione], the viability at 48 h, 25 µM worked out at 110%.

For the compound `Cc1cc(C(=O)CCl)c(C)n1CCc1ccc(Cl)cc1` [10-N16, 2-chloro-1-{1-[2-(4-chlorophenyl)ethyl]-2,5-dimethyl-1H-pyrrol-3-yl}ethan-1-one], the viability at 48 h, 25 µM is 0.625%.

As to `Cc1cc(C(=O)CCl)c(C)n1Cc1ccc(F)cc1` [10-N17, 2-chloro-1-{1-[(4-fluorophenyl)methyl]-2,5-dimethyl-1H-pyrrol-3-yl}ethan-1-one], the viability at 48 h, 25 µM was 6.45%.

With `Cc1cc(C(=O)CCl)c(C)n1-c1cccc(Cl)c1` [10-N18, 2-chloro-1-[1-(3-chlorophenyl)-2,5-dimethyl-1H-pyrrol-3-yl]ethan-1-one], the viability at 48 h, 25 µM turned out to be 0.68%.

Regarding `CCn1cc(S(=O)(=O)N2CCSSCC2)cn1` [10-N19, 5-[(1-ethyl-1H-pyrazol-4-yl)sulfonyl]-1,2,5-dithiazepane], the viability at 48 h, 25 µM stood at 109%.

For the compound `Cc1cc(C(=O)CCl)c(C)n1-c1ccc(C(C)(C)C)cc1` [10-N20, 1-[1-(4-tert-butylphenyl)-2,5-dimethyl-1H-pyrrol-3-yl]-2-chloroethan-1-one], the viability at 48 h, 25 µM was 0.606%.

Take `CC1(C)C(=O)Nc2ccc(C(=O)CCl)cc21` [10-N21, 5-(2-chloroacetyl)-3,3-dimethyl-2,3-dihydro-1H-indol-2-one]: the viability at 48 h, 25 µM turned out to be 73.1%.

Turning to `Cn1cc(C(=O)CCl)cc1C(=O)C(Cl)(Cl)Cl` [10-N22, 2,2,2-trichloro-1-[4-(2-chloroacetyl)-1-methyl-1H-pyrrol-2-yl]ethan-1-one], the viability at 48 h, 25 µM was determined as 1.4%.

With `Cc1cc(C(=O)CCl)c(F)cc1F` [10-O03, 2-chloro-1-(2,4-difluoro-5-methylphenyl)ethan-1-one], the viability at 48 h, 25 µM was 2.01%.

With `CC(Cl)C(=O)c1ccc(Cl)cc1` (stereo not shown) [10-O04, 2-chloro-1-(4-chlorophenyl)propan-1-one], the viability at 48 h, 25 µM was 106%.

Turning to `CC(=O)NCCc1cc(C(=O)CCl)ccc1F` [10-O05, N-{2-[5-(2-chloroacetyl)-2-fluorophenyl]ethyl}acetamide], the viability at 48 h, 25 µM stood at 37.8%.

For `CCCC(=O)Nc1ccc(C(=O)C(C)Cl)cc1` (stereo not shown) [10-O06, N-[4-(2-chloropropanoyl)phenyl]butanamide], the viability at 48 h, 25 µM is 85.1%.

On to `O=C1C=CC(=O)N1c1cccc(O)c1` [10-O07, 1-(3-hydroxyphenyl)-2,5-dihydro-1H-pyrrole-2,5-dione], for which the viability at 48 h, 25 µM is 68.4%.

As for `N#CC(C(=O)CCl)=C1Nc2cc(Cl)ccc2S1` [10-O08, 4-chloro-2-(5-chloro-2,3-dihydro-1,3-benzothiazol-2-ylidene)-3-oxobutanenitrile], the viability at 48 h, 25 µM is 101%.

As to `O=C(CCl)c1ccoc1` [10-O09, 2-chloro-1-(furan-3-yl)ethan-1-one], the viability at 48 h, 25 µM was found to be 76.8%.

For `COc1ccccc1N1C(=O)C=CC1=O` [10-O10, 1-(2-methoxyphenyl)-2,5-dihydro-1H-pyrrole-2,5-dione], the viability at 48 h, 25 µM was found to be 57.5%.

In the case of `O=C(CCl)c1c[nH]c2ccc(F)cc12` [10-O11, 2-chloro-1-(5-fluoro-1H-indol-3-yl)ethan-1-one], the viability at 48 h, 25 µM came to 0.58%.

In the case of `CC(=O)Nc1ccc(C(=O)CCl)cc1` [10-O12, N-[4-(2-chloroacetyl)phenyl]acetamide], the viability at 48 h, 25 µM was 12.6%.

For the compound `Cc1ccc(CC(=O)CCl)cc1` [10-O13, 1-chloro-3-(4-methylphenyl)propan-2-one], the viability at 48 h, 25 µM came to 67.6%.

Regarding `Cc1ccc([N+](=O)[O-])cc1N1C(=O)C=CC1=O` [10-O14, 1-(2-methyl-5-nitrophenyl)-2,5-dihydro-1H-pyrrole-2,5-dione], the viability at 48 h, 25 µM is 67.2%.

On to `O=C(CCl)Cc1c(F)cccc1F` [10-O15, 1-chloro-3-(2,6-difluorophenyl)propan-2-one], for which the viability at 48 h, 25 µM came to 95.8%.

Consider `Cc1cc(C(=O)CCl)c(C)n1CC(N)=O` [10-O16, 2-[3-(2-chloroacetyl)-2,5-dimethyl-1H-pyrrol-1-yl]acetamide], for which the viability at 48 h, 25 µM was found to be 108%.

As for `O=C(CCl)Cc1ccc(F)c(F)c1` [10-O17, 1-chloro-3-(3,4-difluorophenyl)propan-2-one], the viability at 48 h, 25 µM is 28%.

In the case of `Cc1nc(CNC(=O)N2CCSSCC2)cs1` [10-O18, N-[(2-methyl-1,3-thiazol-4-yl)methyl]-1,2,5-dithiazepane-5-carboxamide], the viability at 48 h, 25 µM turned out to be 112%.

Take `O=C1C=CC(=O)N1C1CNC1` [10-O19, 1-(azetidin-3-yl)-2,5-dihydro-1H-pyrrole-2,5-dione hydrochloride]: the viability at 48 h, 25 µM is 83.3%.

Turning to `O=C1CCc2cc(C(=O)CCl)c(F)cc2N1` [10-O20, 6-(2-chloroacetyl)-7-fluoro-1,2,3,4-tetrahydroquinolin-2-one], the viability at 48 h, 25 µM is 11.9%.

In the case of `c1ccc(CSSCc2ccccc2)cc1` [10-O21, [(benzyldisulfanyl)methyl]benzene], the viability at 48 h, 25 µM worked out at 100%.

In the case of `O=C(Nc1nccs1)N1CCSSCC1` [10-O22, N-(1,3-thiazol-2-yl)-1,2,5-dithiazepane-5-carboxamide], the viability at 48 h, 25 µM worked out at 113%.

Turning to `CC(=O)NCCc1ccc(C(=O)CCl)s1` [10-P03, N-{2-[5-(2-chloroacetyl)thiophen-2-yl]ethyl}acetamide], the viability at 48 h, 25 µM was found to be 64.9%.

As to `O=C(CCl)c1c(-c2ccc(F)cc2)[nH]c2ccccc12` [10-P04, 2-chloro-1-[2-(4-fluorophenyl)-1H-indol-3-yl]ethan-1-one], the viability at 48 h, 25 µM came out at 4.16%.

For `Cn1c(N)c(N2C(=O)C=CC2=O)c(=O)[nH]c1=O` [10-P05, 6-amino-5-(2,5-dioxo-2,5-dihydro-1H-pyrrol-1-yl)-1-methyl-1,2,3,4-tetrahydropyrimidine-2,4-dione], the viability at 48 h, 25 µM stood at 124%.

Turning to `Nc1c(C(=O)CCl)c(=O)[nH]c(=O)n1C1CC1` [10-P06, 6-amino-5-(2-chloroacetyl)-1-cyclopropyl-1,2,3,4-tetrahydropyrimidine-2,4-dione], the viability at 48 h, 25 µM amounted to 111%.

As to `O=C1C=CC(=O)N1c1cnccn1` [10-P07, 1-(pyrazin-2-yl)-2,5-dihydro-1H-pyrrole-2,5-dione], the viability at 48 h, 25 µM turned out to be 103%.

On to `CCn1nc(C)c(C(=O)CCl)n1` [10-P08, 2-chloro-1-(2-ethyl-5-methyl-2H-1,2,3-triazol-4-yl)ethan-1-one], for which the viability at 48 h, 25 µM was 27.2%.

Consider `O=C(Nc1cccc(-c2nnco2)c1)N1CCSSCC1` [10-P09, N-[3-(1,3,4-oxadiazol-2-yl)phenyl]-1,2,5-dithiazepane-5-carboxamide], for which the viability at 48 h, 25 µM was found to be 116%.

In the case of `CC(C)(C)C(=O)NCc1ccc(C(=O)CCl)s1` [10-P10, N-{[5-(2-chloroacetyl)thiophen-2-yl]methyl}-2,2-dimethylpropanamide], the viability at 48 h, 25 µM is 12.3%.

In the case of `O=C1C=CC(=O)N1c1ccc(OC(F)F)cc1` [10-P11, 1-[4-(difluoromethoxy)phenyl]-2,5-dihydro-1H-pyrrole-2,5-dione], the viability at 48 h, 25 µM amounted to 102%.

`CC(Cl)C(=O)c1ccc2c(c1)NC(=O)CO2` (stereo not shown) [10-P12, 6-(2-chloropropanoyl)-3,4-dihydro-2H-1,4-benzoxazin-3-one]: the viability at 48 h, 25 µM was 105%.

Take `COc1ccc([N+](=O)[O-])cc1N1C(=O)C=CC1=O` [10-P13, 1-(2-methoxy-5-nitrophenyl)-2,5-dihydro-1H-pyrrole-2,5-dione]: the viability at 48 h, 25 µM came out at 102%.

For `N#CC(C(=O)CCl)=C1NC(=O)c2ccccc2N1` [10-P14, 4-chloro-3-oxo-2-(4-oxo-1,2,3,4-tetrahydroquinazolin-2-ylidene)butanenitrile], the viability at 48 h, 25 µM is 110%.

On to `O=C1C=CC(=O)N1c1cccc([N+](=O)[O-])c1` [10-P15, 1-(3-nitrophenyl)-2,5-dihydro-1H-pyrrole-2,5-dione], for which the viability at 48 h, 25 µM amounted to 92.8%.
